According to patent US12022831B2, “Synergistic weed control from applications of aminopyralid and clopyralid” (Dow AgroSciences LLC, priority 2012, dated 2024):
Where a name gives a salt, the structure may show the parent alone.

System: honey mesquite (Prosopis glandulosa), weed bayer PRCJG
Test: Field trial, post-emergence foliar application, synergistic weed control (canopy control and mortality ratings, Colby's equation)
Assay type: in vivo
Protocol: In some embodiments, the damage or injury to the undesired vegetation caused by the compositions and methods disclosed herein is evaluated using a scale from 0% to 100%, when compared with the untreated control vegetation, wherein 0% indicates no damage to the undesired vegetation and 100% indicates complete destruction of the undesired vegetation.
X=effect in percent using (a) aminopyralid or an agriculturally acceptable salt or ester thereof at an application rate a;
Y=effect in percent using (b) clopyralid or an agriculturally acceptable salt or ester thereof at an application rate b;
E=expected effect (in %) of (a)+(b) at application rates a and b.
In Colby's equation, the value E corresponds to the effect (plant damage or injury) that is to be expected if the activity of the individual compounds is additive. If the observed effect is higher than the value E calculated according to the Colby equation, then a synergistic effect is present according to the Colby equation.
Field trials were conducted with applications made to established grassland with naturally occurring weed populations. The target plants were treated with postemergence foliar applications when they reached two to five feet tall. All treatments were applied using a nonrandomized trial design, with three replications per treatment.
[…] Spray solutions were prepared using an appropriate amount of dilution to form a 2 L aqueous spray solution with active ingredients in single and two way combinations. […] The treated plants were honey mesquite (Prosopis glandulosa). The treated plots and control plots were rated blind at various intervals after application. Ratings were based on a scale of 0-100%, wherein 0% indicates no damage to the canopy of the undesired vegetation and 100% indicates complete destruction of the canopy of undesired vegetation. Dead and live plants were counted and the mortality was calculated as a % of the total number of undesired plants per plot.
Colby's equation was used to determine the herbicidal effects expected from the mixtures, as described above. […] The herbicide tank mix combinations tested, application rates and ratios employed, plant species tested, and results are given below.

SMILES	Mean % weed mortality; Evaluation: % Canopy Control (Clopyralid MEA Salt alone 560 gae/ha, 82 days after treatment) [%]	Mean % weed mortality; Evaluation: % Mortality (Clopyralid MEA Salt alone 560 gae/ha, 385 days after treatment) [%]	Mean % weed mortality; Evaluation: % Mortality (Clopyralid MEA Salt alone 560 gae/ha, 386 days after treatment) [%]	Mean % weed mortality; Evaluation: % Canopy Control (Aminopyralid TIPA Salt alone 280 gae/ha, 81 days after treatment) [%]	Mean % weed mortality; Evaluation: % Canopy Control (Aminopyralid TIPA Salt alone 280 gae/ha, 82 days after treatment) [%]	Mean % weed mortality; Evaluation: % Mortality (Aminopyralid TIPA Salt alone 280 gae/ha, 385 days after treatment) [%]	Mean % weed mortality; Evaluation: % Mortality (Aminopyralid TIPA Salt alone 280 gae/ha, 386 days after treatment) [%]
O=C(O)c1nc(Cl)ccc1Cl [Clopyralid MEA Salt, 3,6-dichloro-2-pyridinecarboxylic acid]	25.0	25	7	–	–	–	–
Nc1cc(Cl)nc(C(=O)O)c1Cl [Aminopyralid TIPA Salt, 4-amino-3,6-dichloro-2-pyridinecarboxylic acid]	–	–	–	22.0	10.0	0	14
